Measurements from publication PMC10021052, “Novel multivalent S100A8 inhibitory peptides attenuate tumor progression and metastasis by inhibiting the TLR4-dependent pathway” (Cancer Gene Therapy, 2023).
Values belong to the compound of their own block, whether it stands above or below them. Positions of bridges follow the written chain, without caps; N, C: chain ends. Non-standard residues stand in square brackets, D forms with d. Residues, ends and D or L forms follow the SMILES beside them. Chains are numbered I, II in the order given. ξ: configuration not given here. ξK = NCCCCC(N)C(=O)O; Ahx = NCCCCCC(=O)O

What was measured:
[1] = system: TLR4; settings: ref [33], [34]; cited from earlier work
Excerpt: The difference between TAK-242 and our inhibitory peptides is the target molecules. […] Qin et al. previously generated two peptibodies, peptide-Fc fusion proteins, targeting mouse MDSCs using a competitive peptide phage display platform. Peptibodies recognize the cell surface of mouse MDSCs. Although peptibodies also recognize S100A9, mouse MDSCs ar ...

[2] = system: CD8+ cells; settings: LLC-tumor-bearing mice; ref [8]; cited from earlier work
[3] = system: S100A8-mediated cell migration; settings: ref [8]; cited from earlier work
Excerpt: VEGF is another NFκB-mediated re ...

[4] = system: SW480-transplanted xenograft; assay: Tumor growth in SW480-transplanted xenograft model; format: in vivo, Balb nu/nu mice; settings: SW480 xenograft, various concentrations every 3 days, *P < 0.05 vs control
[5] = biological target: T1, TLR4/MD-2 complex (Homo sapiens, UniProt O00206+Q9Y6Y9); assay: TLR4/MD-2 binding to immobilized tetravalent ILVIK (ELISA); settings: various TLR4/MD-2 concentrations, one representative of three experiments (Fig. 7F)
T1 construct: TLR4/MD-2 recombinant protein (2 µg/ml) was added to each well
Method: S100A8 recombinant protein was purified as previously described. These proteins were immobilized on Maxisorp plates (Thermo Fisher Scientific, Waltham, MA, USA), followed by blocking with protein-free blocking buffer (Thermo Fisher Scientific). TLR4/MD-2 recombinant proteins with various concentrations of candidate peptides were then added to the indicated S100A8-immobilized ELISA plates for 2 h. The plates were washed, incubated with anti-TLR4 antibody, and HRP-conjugated secondary antibody, followed by the addition of substrate. The reaction was stopped by addition a 2N H2SO4 solution. Absorbance OD450/OD650 was measured using a microplate reader (Thermo Fisher Scientific). Maxisorp plates were also used for peptide coating. After blocking with protein-free blocking buffer, the coated plates were washed, and TLR4/MD-2 recombinant protein (2 µg/ml) was added to each well. The plates were incubated with a TLR4 antibody followed by horseradish peroxidase (HRP)-labeled anti-rabbit IgG. […] The amount of interleukin-8 (IL-8) or VEGF in the supernatants were analyzed by ELISA kits (R&D Systems, Mineapolis, MN) according to the manufacturer’s instructions.
Fig. 7 Isolation of multivalent S100A8 inhibitory peptides using divalent peptide libraries based on the sequences of peptide3A5. […] The binding affinities to TLR4/MD-2 complex were determined using an ELISA-based assay. […]

[6] = system: tumor cells and macrophages; assay: Cytokine/chemokine induction in tumor cells and macrophages; format: cell-based; settings: possible mechanism scheme, Fig. 7I
[7] = system: SW480 cells; assay: qPCR, S100A8-mediated IL-8 and VEGF mRNA induction in SW480 cells; format: cell-based, human
Method: SW480 cells were treated with S100A8 in Dulbecco’s Modified Eagle Medium/HamF12 supplemented with 0.1% bovine serum albumin for cytokine induction. Total RNA was extracted using the RNeasy Mini Plus (Qiagen, Hilden, Germany). Complementary DNA was synthesized using the PrimeScript 1st Strand Synthesis kit (Takara Bio, Japan). Quantitative PCR (qPCR) analysis was performed using the PowerUp^TM SYBR^TM Green mixture (Thermo Fisher Scientific) and the StepOnePlus Real Time PCR System (Thermo Fisher Scientific). Gene expression levels were calculated from Ct values, and the relationship between the Ct value and the logarithm of the copy number of a target gene was confirmed to be on a linear line using the corresponding isolated DNA and its serial dilutions as a standard. Thus, the gene expression levels of IL-8 and VEGF were normalized against that of β-actin in each sample. The following primers were used; β-actin, 5′-[…]-3′ and 5′-[…]-3′; IL-8, 5′-[…]-3′ and 5′-[…]-3′; VEGF, 5′-[…]-3′ and 5′-[…]-3′.
(§1) Fig. 2 Identification of S100A8 binding sites to human TLR4/MD-2. […] TLR4/MD-2 recombinant proteins were immobilized to the ELISA plate. After blocking, a full length or deletion mutant of S100A8 was added to the plate. The more detailed methods are described in Materials and Methods. […] B A series of overlapping S100A8 synthetic peptides. The TLR4/MD-2 recombinant proteins were added to each well of peptide immobilized plates. The affinity to TLR4/MD-2 was determined. Data are shown as mean ± SD. C The competitive activity was determined using ELISA. Data are shown as mean ± SD. D The TLR4/MD-2 was mixed with S100A8 with/without the indicated peptides, and immunoprecipitated using an anti-TLR4 antibody. TLR4 or S100A8 was visualized. Similar results were obtained in three independent experiments. […] Total RNAs from SW480 cells with/without treatment of the peptide candidates were extracted and qPCR analysis was performed using relevant primer sets and SYBR green. Relative expression levels were compared. […] TEXT PRINTED IN THE PICTURE: (A) Full length: TLR4/MD-2 binding: + | (A) S100A8-ΔC: TLR4/MD-2 binding: − | (A) S100A8-N: TLR4/MD-2 binding: −
(§2) Fig. 4 Improvement of competitive inhibition activity by divalent peptide3A5. A The binding capacity was measured at the indicated concentration using an ELISA-based assay. Similar results were obtained in three independent experiments. B SW480 cells were pretreated with 2.5 µM of divalent peptide3A5, and then stimulated with human S100A8 recombinant protein. After 30 min, cell lysates were subjected to western blotting using the indicated antibody. The divalent peptide#3 or peptide3A5 reduced the expression of S100A8-mediated IL-8 (C) and VEGF (D) induction. Total RNAs from SW480 cells with/without treatment of the peptide candidates were extracted and qPCR analysis was performed using relevant primer sets and SYBR green. Relative expression levels were compared. Peptide #3 suppresses S100A8-mediated IL-8(E) and VEGF (F) secretion in SW480 cells.

[8] = system: SW480 cells; assay: S100A8-mediated cell migration of SW480 cells; format: cell-based, human; settings: Supplementary Fig. 1B
[9] = system: human TLR4/MD-2 complex; assay: ELISA, TLR4/MD-2 binding to immobilized S100A8-derived peptides (overlapping peptides, alanine scan); settings: ELISA, peptide immobilized, TLR4/MD-2 2 µg/ml
Method: (§3) S100A8 recombinant protein was purified as previously described. These proteins were immobilized on Maxisorp plates (Thermo Fisher Scientific, Waltham, MA, USA), followed by blocking with protein-free blocking buffer (Thermo Fisher Scientific). TLR4/MD-2 recombinant proteins with various concentrations of candidate peptides were then added to the indicated S100A8-immobilized ELISA plates for 2 h. The plates were washed, incubated with anti-TLR4 antibody, and HRP-conjugated secondary antibody, followed by the addition of substrate. The reaction was stopped by addition a 2N H2SO4 solution. Absorbance OD450/OD650 was measured using a microplate reader (Thermo Fisher Scientific). Maxisorp plates were also used for peptide coating. After blocking with protein-free blocking buffer, the coated plates were washed, and TLR4/MD-2 recombinant protein (2 µg/ml) was added to each well. The plates were incubated with a TLR4 antibody followed by horseradish peroxidase (HRP)-labeled anti-rabbit IgG. For detection of IL8 and VEGF in culture supernatants, SW480 cells were pretreated with the indicated peptides, and followed by stimulation with S100A8 for 24 h. The amount of interleukin-8 (IL-8) or VEGF in the supernatants were analyzed by ELISA kits (R&D Systems, Mineapolis, MN) according to the manufacturer’s instructions.
as §1
Fig. 3 Identification of high affinity peptides to TLR4/MD-2 using alanine scanning based on the peptide #3 amino acid sequences. A Lists of peptides used for alanine scanning. […] Similar results were obtained in three independent experiments.

[10] = system: SW480 cells; assay: ELISA, IL-8 and VEGF secretion of SW480 cells; format: cell-based, human; settings: peptide pretreatment, S100A8 24 h, supernatant ELISA, *P < 0.05 vs S100A8
Method: as §3

[11] = system: S100A8-TLR4/MD-2 complex; assay: Competitive inhibition of S100A8-TLR4/MD-2 binding (ELISA, S100A8 immobilized; also immunoprecipitation); design: species or system human; settings: ELISA (Fig. 2C), immunoprecipitation with anti-TLR4 antibody (Fig. 2D)
Method: as §3, §1, §2

T1 sequence (O00206 24-631 limits assumed): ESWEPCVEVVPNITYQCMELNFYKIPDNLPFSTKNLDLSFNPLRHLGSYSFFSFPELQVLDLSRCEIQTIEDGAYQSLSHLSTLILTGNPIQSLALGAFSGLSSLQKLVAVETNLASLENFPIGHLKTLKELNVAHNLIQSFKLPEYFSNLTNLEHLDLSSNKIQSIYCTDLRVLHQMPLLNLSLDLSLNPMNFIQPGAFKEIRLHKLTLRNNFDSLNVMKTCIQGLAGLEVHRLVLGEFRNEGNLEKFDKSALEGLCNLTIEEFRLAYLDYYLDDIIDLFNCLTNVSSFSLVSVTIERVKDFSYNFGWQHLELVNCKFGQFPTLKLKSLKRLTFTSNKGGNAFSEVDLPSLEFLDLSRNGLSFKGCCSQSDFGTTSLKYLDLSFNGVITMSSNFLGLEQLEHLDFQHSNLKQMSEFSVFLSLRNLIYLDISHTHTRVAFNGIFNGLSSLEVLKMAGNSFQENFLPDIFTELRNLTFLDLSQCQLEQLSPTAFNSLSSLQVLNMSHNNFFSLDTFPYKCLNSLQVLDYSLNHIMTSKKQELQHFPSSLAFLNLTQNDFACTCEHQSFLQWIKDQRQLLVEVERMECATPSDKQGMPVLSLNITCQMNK
T1 sequence (Q9Y6Y9 17-160 partner limits assumed): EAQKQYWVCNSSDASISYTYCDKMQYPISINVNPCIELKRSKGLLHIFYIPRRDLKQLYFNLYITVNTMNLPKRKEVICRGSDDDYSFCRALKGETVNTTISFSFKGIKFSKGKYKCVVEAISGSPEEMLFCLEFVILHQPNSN

Compound: CCOC(=O)C1=CCCC[C@H]1S(=O)(=O)Nc1ccc(F)cc1Cl [TAK-242, ethyl (6R)-6-[N-(2-Chloro-4-fluorophenyl)sulfamoyl]cyclohex-1-ene-1-carboxylate]
- TLR4 inhibition, site [1]: inhibits TLR4 at intracellular domains

Compound: CCCCCC/C=C\CCCCCCCCCC(=O)N[C@H]1[C@H](OC[C@H]2O[C@H](OP(=O)(O)O)[C@H](NC(=O)CC(=O)CCCCCCCCCCC)[C@@H](OCCCCCCCCCC)[C@@H]2O)O[C@H](COC)[C@@H](OP(=O)(O)O)[C@@H]1OCC[C@@H](CCCCCCC)OC [Eritoran, reference compound]
- intratumoral infiltration of CD8+ cells, Eritoran [2]: increased intratumoral infiltration of CD8^+ cells
- S100A8-mediated cell migration, Eritoran [3]: inhibited S100A8-mediated cell migration

- Kd [5]: 4.58 to 8.78 nM
Compound: CC[C@H](C)[C@H](NC(C)=O)C(=O)N[C@@H](CC(C)C)C(=O)N[C@H](C(=O)N[C@H](C(=O)N[C@@H](CCCCN)C(=O)NCCCCCC(=O)NCCCCC(NC(=O)CCCCCNC(=O)[C@H](CCCCN)NC(=O)[C@@H](NC(=O)[C@@H](NC(=O)[C@H](CC(C)C)NC(=O)[C@@H](NC(C)=O)[C@@H](C)CC)C(C)C)[C@@H](C)CC)C(=O)NCCCCC(NC(=O)C(CCCCNC(=O)CCCCCNC(=O)[C@H](CCCCN)NC(=O)[C@@H](NC(=O)[C@@H](NC(=O)[C@H](CC(C)C)NC(=O)[C@@H](NC(C)=O)[C@@H](C)CC)C(C)C)[C@@H](C)CC)NC(=O)CCCCCNC(=O)[C@H](CCCCN)NC(=O)[C@@H](NC(=O)[C@@H](NC(=O)[C@H](CC(C)C)NC(=O)[C@@H](NC(C)=O)[C@@H](C)CC)C(C)C)[C@@H](C)CC)C(N)=O)[C@@H](C)CC)C(C)C (some centres unmarked) [Tetravalent ILVIK] (I: Ac-ILVIK[Ahx][ξK][ξK]-NH2 / II: Ac-ILVIK[Ahx][ξK] / III: Ac-ILVIK[Ahx] / IV: Ac-ILVIK[Ahx]; amide I:7-IV:C, I:8-II:C, II:7-III:C)
- tumor growth, multivalent ILVIK [4]: inhibits tumor growth
- tumor growth, multivalent ILVIK ([4]; listed as tetravalent ILVIK): more effectively inhibited tumor progression
- induction of cytokines/chemokines [6]: suppress the induction of cytokines/chemokines in both tumor cells and macrophages

Compound: FQEFLILVIK [Peptide #3, S100A8-derived peptide […] from the carboxyl terminal region]
- IL-8 induction by peptide alone (agonism) ([7]; no S100A8): failed to induce IL-8 production
- S100A8-mediated VEGF induction (mRNA) ([7]; qPCR, normalized to β-actin): suppressed S100A8-induced VEGF induction
- S100A8-mediated IL-8 induction (mRNA) ([7]; qPCR, normalized to β-actin, *P < 0.05 vs S100A8): reduces the expression of S100A8-mediated IL-8 induction
- S100A8-mediated cell migration [8]: significantly inhibited
- TLR4/MD-2 binding of peptide [9]: most strongly bound to the TLR4/MD-2 complex among a series of S100A8-derived peptides
- TLR4/MD-2 binding of peptide ([9]; listed as peptide #3): could bind to TLR4/MD-2
- S100A8-mediated IL-8 secretion [10]: suppresses S100A8-mediated IL-8 secretion
- S100A8-mediated VEGF secretion [10]: suppresses
- S100A8-mediated IL-8 secretion ([10]; listed as peptide#3): suppressed
- competition for S100A8-TLR4/MD-2 binding [11]: competed for binding between S100A8 and the TLR4/MD-2 complex
